Results from ChEMBL document CHEMBL4418487, “Max binders as myc modulators and uses thereof” (2017).
Active and inactive are the calls of the source. The calls are words filed in the database; no cut-off is given here.

Assays:
CA46 = assay: Cytotoxicity against human CA46 cells assessed as reduction in cell viability incubated for 3 days by CellTiter-Glo assay; type: functional, cell-based
Homo sapiens [1] = species on record: Homo sapiens; assay: Cytotoxicity against human GBM4 cells assessed as reduction in cell viability incubated for 4 days by CellTiter-Glo assay; type: functional, cell-based
[2] = target: Protein max (Homo sapiens) (UniProt P61244); assay: Binding affinity to Max in human P493-6 cells using Bio-MS2 by Western blotting analysis based pull down assay; type: cell-based
Protein max (Homo sapiens), sequence (P61244 whole entry): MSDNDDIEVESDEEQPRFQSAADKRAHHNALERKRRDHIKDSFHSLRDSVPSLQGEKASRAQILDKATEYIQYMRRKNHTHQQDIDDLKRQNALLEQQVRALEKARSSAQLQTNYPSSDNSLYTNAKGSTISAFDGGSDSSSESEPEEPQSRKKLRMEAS

ST486 = assay: Cytotoxicity against human ST486 cells assessed as reduction in cell viability incubated for 3 days by CellTiter-Glo assay; type: functional, cell-based
NCI-H1963 = assay: Cytotoxicity against human NCI-H1963 cells assessed as reduction in cell viability incubated for 3 days by CellTiter-Glo assay; type: functional, cell-based
[3] = Cytotoxicity against human P493-6 cells with where Myc is in OFF- condition assessed as reduction in cell viability incubated for 3 days by CellTiter-Glo assay; type: cell-based
[4] = Retention time of the compound by LC/MS analysis; type: physicochemical
[5] = target: Protein max (Homo sapiens) (UniProt P61244); assay: Binding affinity to Max in human P493-6 cells assessed as effect on Max interactome by measuring perturbation in Atg16l1 level at […] incubated for 30 mins by immunoprecipitation based assay; type: cell-based
[6] = Renal toxicity in healthy mouse assessed as induction of kidney damage at 0.364 mg/kg, po dosed daily using cyclodextrin vehicle for 7 days by H and E staining histological analysis; type: organism-based; conditions: in vivo, 168 h
Homo sapiens [7] = assay: Antitumor activity against Luc-labeled and MYC-driven human T-ALL 4188 cells xenografted in immune-compromised NSG mouse assessed as reduction in tumor volume at 10 mg/ml dosed in corn oil every other day during day 2 to 16 after tumor implantation; type: functional, organism-based
[8] = Drug level in mouse plasma at 20 uM, po by LC/MS analysis; type: ADME, organism-based; conditions: in vivo
[9] = Renal toxicity in healthy mouse assessed as induction of kidney damage at 0.731 mg/kg, po dosed daily using cyclodextrin vehicle for 7 days by H and E staining histological analysis; type: organism-based; conditions: in vivo, 168 h
[10] = target: Protein max (Homo sapiens) (UniProt P61244); assay: Binding affinity to Max in human P493-6 cells at […] incubated for 30 mins by immunoprecipitation based assay; type: cell-based
[11] = Drug level in mouse plasma at 20 uM, iv by LC/MS analysis; type: ADME, organism-based; conditions: in vivo
Homo sapiens [12] = assay: Antitumor activity against Luc-labeled and MYC-driven human T-ALL 4188 cells xenografted in immune-compromised NSG mouse assessed as reduction in tumor volume at 20 uM, iv measured during 2 to 12 days after tumor implantation; type: functional, organism-based
c-Myc/Max (Homo sapiens) = c-Myc/Max (Homo sapiens) (UniProt P01106+P61244); assay: Inhibition of c-Myc/Max heterodimer interaction in human P493-6 cells by electrophoretic mobility shift assay; type: cell-based
[13] = target: Protein max (Homo sapiens) (UniProt P61244); assay: Binding affinity to Max in human P493-6 cells assessed as effect on Max interactome by measuring perturbation in Myc level at […] incubated for 30 mins by immunoprecipitation based assay; type: cell-based
[14] = target: Protein max (Homo sapiens) (UniProt P61244); assay: Binding affinity to Max in human P493-6 cells assessed as decrease in Myc transcript levels by qPCR analysis; type: cell-based
[15] = target: Protein max (Homo sapiens) (UniProt P61244); assay: Binding affinity to Max in human P493-6 cells assessed as effect on Max interactome by measuring perturbation in Rcor1 level at […] incubated for 30 mins by immunoprecipitation based assay; type: cell-based
[16] = Hepatic toxicity in healthy mouse assessed as induction of liver damage at 0.731 mg/kg, po dosed daily using cyclodextrin vehicle for 7 days by H and E staining histological analysis; type: organism-based; conditions: in vivo, 168 h
Homo sapiens [17] = assay: Antitumor activity against Luc-labeled and MYC-driven human T-ALL 4188 cells xenografted in immune-compromised NSG mouse assessed as reduction in tumor volume using tumor cells pre-treated with 20 uM compound for 24 hrs; type: functional
[18] = Drug level in mouse plasma at 100 to 200 uM, po dosed using cyclodextrin vehicle by LC/MS analysis; type: ADME, organism-based; conditions: in vivo
[19] = Toxicity in healthy mouse assessed as effect on behavior at 0.364 mg/kg, po dosed daily using cyclodextrin vehicle for 7 days measured on each day; type: organism-based; conditions: in vivo, 168 h
[20] = target: Protein max (Homo sapiens) (UniProt P61244); assay: Binding affinity to Max in human P493-6 cells assessed as effect on Max interactome by measuring perturbation in Yaf2 level at […] incubated for 30 mins by immunoprecipitation based assay; type: cell-based
[21] = Toxicity in healthy mouse assessed as effect on liver at 0.731 mg/kg, po dosed daily using cyclodextrin vehicle for 7 days by H and E staining histological analysis; type: organism-based; conditions: in vivo, 168 h
[22] = target: Myc proto-oncogene protein (Homo sapiens) (UniProt P01106); assay: Binding affinity to c-Myc in human P493-6 cells at […] incubated for 30 mins by immunoprecipitation based assay; type: cell-based
Myc proto-oncogene protein (Homo sapiens), sequence (P01106 whole entry): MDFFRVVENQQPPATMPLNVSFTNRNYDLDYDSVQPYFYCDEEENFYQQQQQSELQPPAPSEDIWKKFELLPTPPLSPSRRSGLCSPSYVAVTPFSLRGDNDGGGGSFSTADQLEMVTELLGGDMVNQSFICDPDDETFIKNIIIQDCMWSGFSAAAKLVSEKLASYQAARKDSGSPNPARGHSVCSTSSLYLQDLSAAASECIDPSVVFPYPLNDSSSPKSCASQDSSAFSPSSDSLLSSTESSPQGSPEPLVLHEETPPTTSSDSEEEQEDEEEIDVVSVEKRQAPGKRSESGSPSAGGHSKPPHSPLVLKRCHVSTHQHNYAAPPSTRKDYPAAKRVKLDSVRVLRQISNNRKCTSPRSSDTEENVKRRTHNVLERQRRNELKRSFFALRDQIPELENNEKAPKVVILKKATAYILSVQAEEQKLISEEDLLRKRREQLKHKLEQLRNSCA

[23] = target: Protein max (Homo sapiens) (UniProt P61244); assay: Induction of Max homodimer stabilization in human P493-6 cells assessed as increase in Max homodimer binding to DNA by electrophoretic mobility shift assay; type: cell-based
[24] = Toxicity in healthy mouse assessed as effect on body weight at 0.731 mg/kg, po dosed daily using cyclodextrin vehicle for 7 days measured on each day; type: organism-based; conditions: in vivo, 168 h
[25] = Toxicity in healthy mouse assessed as effect on body weight at 0.364 mg/kg, po dosed daily using cyclodextrin vehicle for 7 days measured on each day; type: organism-based; conditions: in vivo, 168 h
[26] = Toxicity in healthy mouse assessed as effect on behavior at 0.731 mg/kg, po dosed daily using cyclodextrin vehicle for 7 days measured on each day; type: organism-based; conditions: in vivo, 168 h
[27] = Drug level in plasma (unknown origin) at 0.2 to 10 uM by serial dilution-lowest detection limit test; type: ADME, cell-free
[28] = target: Protein max (Homo sapiens) (UniProt P61244); assay: Binding affinity to Max in human P493-6 cells assessed as effect on Max interactome by measuring perturbation in Mxd4 level at […] incubated for 30 mins by immunoprecipitation based assay; type: cell-based
[29] = target: Protein max (Homo sapiens) (UniProt P61244); assay: Binding affinity to Max in human P493-6 cells assessed as decrease in Myc protein levels at 10 uM in presence of 10 uM proteasome inhibitor MG132; type: cell-based
[30] = Toxicity in healthy mouse assessed as effect on liver at 0.364 mg/kg, po dosed daily using cyclodextrin vehicle for 7 days by H and E staining histological analysis; type: organism-based; conditions: in vivo, 168 h
[31] = target: Protein max (Homo sapiens) (UniProt P61244); assay: Binding affinity to Max in human P493-6 cells assessed as induction of perturbation in transcriptional programs after 45 mins; type: cell-based
[32] = target: Protein max (Homo sapiens) (UniProt P61244); assay: Induction of recombinant human Max homodimer stabilization at 10 uM pre-incubated for 1 hr with protein and measured after 18 hrs
[33] = target: Protein max (Homo sapiens) (UniProt P61244); assay: Binding affinity to Max in human P493-6 cells assessed as effect on Max interactome by measuring perturbation in Nacc2 level at […] incubated for 30 mins by immunoprecipitation based assay; type: cell-based
[34] = target: Protein max (Homo sapiens) (UniProt P61244); assay: Binding affinity to Max in human P493-6 cells assessed as decrease in Myc protein levels; type: cell-based
[35] = Cytotoxicity against human P493-6 cells with where Myc is in ON- condition assessed as reduction in cell viability incubated for 3 days by CellTiter-Glo assay; type: functional, cell-based
[36] = target: Protein max (Homo sapiens) (UniProt P61244); assay: Binding affinity to Max in human P493-6 cells at 5 to 10 uM using AlexaFluor-tagged compound by Western blotting analysis based target engagement assay; type: cell-based
[37] = target: Protein max (Homo sapiens) (UniProt P61244); assay: Binding affinity to Max in human P493-6 cells at 5 to 10 uM using AlexaFluor-tagged compound in presence of 20 uM soluble KI-MS2-008 by Western blotting analysis based target engagement assay; type: cell-based
[38] = target: Protein max (Homo sapiens) (UniProt P61244); assay: Binding affinity to Max in human P493-6 cells using Biotin with streptavidin enrichment by Western blotting analysis based target engagement assay; type: cell-based
[39] = target: Myc proto-oncogene protein (Homo sapiens) (UniProt P01106); assay: Binding affinity to MYC in human P493-6 cells using 2 mg protein by immunoblotting based pull down assay; type: cell-based
[40] = target: Protein max (Homo sapiens) (UniProt P61244); assay: Binding affinity to Max in human P493-6 cells using 2 mg protein by immunoblotting based pull down assay; type: cell-based
Astrocyte = assay: Cytotoxicity against normal human astrocytes assessed as reduction in cell viability incubated for 4 days by CellTiter-Glo assay; type: cell-based; conditions: 96 h

## O=C1N(CCS(=O)(=O)c2ccccc2)Cc2ccccc2[C@@H]2OC(c3ccc(OCCCO)cc3)=N[C@]12Cc1ccccc1 (racemic) [listing 1 of 2 here]
CA46
  Activity: Active
Homo sapiens [1]
  Activity: Active
[2]
  Activity: Active
ST486
  Activity: Active
NCI-H1963
  Activity: Active

## O=C(O)CN1Cc2ccccc2[C@@H]2OC(c3ccccc3)=N[C@]2(Cc2ccccc2)C1=O
[3]; Homo sapiens, P493-6, 72 h
  IC50: > 50 µM

## O=C1N(CCS(=O)(=O)c2ccccc2)Cc2ccccc2[C@@H]2OC(c3ccccc3)=N[C@]12Cc1ccccc1
[4]
  Retention_time: 9 min
[5]
  Activity: Active
[6]
  Activity: Non-Toxic
Homo sapiens [7]
  Activity: Active
[8]
  Drug uptake: Not Active
[9]
  Activity: Non-Toxic
[10]
  Activity: Active
[11]
  Drug uptake: Active
Homo sapiens [12]
  Activity: Active
c-Myc/Max (Homo sapiens)
  inhibition: inactive
[13]
  Activity: Active
[14]
  Activity: Active
[15]
  Activity: Active
[16]
  Activity: Non-Toxic
Homo sapiens [17]
  Activity: Active
[18]
  Drug uptake: Active
[19]
  Activity: Non-Toxic
[20]
  Activity: Active
[21]
  Activity: Non-Toxic
[22]
  Activity: Active
[23]
  Activity: Dose-dependent effect
[24]
  Activity: Non-Toxic
[25]
  Activity: Non-Toxic
[26]
  Activity: Non-Toxic
[27]
  Drug uptake: Active
[28]
  Activity: Active
[29]
  Activity: inactive
[30]
  Activity: Non-Toxic
[31]
  Activity: Active
[32]
  Activity: Active
[33]
  Activity: Active
[3]; Homo sapiens, P493-6, 72 h
  IC50: > 50 µM
[34]
  Activity: Dose-dependent effect

## CC(=O)N1Cc2ccccc2[C@@H]2OC(c3ccccc3)=N[C@]2(Cc2ccccc2)C1=O
[35]; Homo sapiens, P493-6, 72 h
  IC50: 19.3 µM
[3]; Homo sapiens, P493-6, 72 h
  IC50: > 50 µM

## CCOC(=O)CN1Cc2ccccc2[C@@H]2OC(c3ccccc3)=N[C@]2(Cc2ccccc2)C1=O
[3]; Homo sapiens, P493-6, 72 h
  IC50: > 50 µM

## O=C1N(CCS(=O)(=O)c2ccccc2)Cc2ccccc2[C@@H]2OC(c3ccc(OCCCO)cc3)=N[C@]12Cc1ccccc1
[3]
  IC50: > 50 µM

## C=CCN1Cc2ccccc2[C@@H]2OC(c3ccccc3)=N[C@]2(Cc2ccccc2)C1=O
[3]; Homo sapiens, P493-6, 72 h
  IC50: > 50 µM

## CCN(CC(=O)NCCNC(=O)CN1Cc2ccccc2[C@@H]2OC(c3ccccc3)=N[C@]2(Cc2ccccc2)C1=O)C(=O)CCC1(C)N=N1
[36]
  Activity: Active
[37]
  Activity: inactive
[38]
  Activity: Active

## NCCOCCOCCNC(=O)CN1Cc2ccccc2[C@@H]2OC(c3ccccc3)=N[C@]2(Cc2ccccc2)C1=O
[39]
  Activity: Active
[40]
  Activity: Active

## O=C(c1ccccc1)N1Cc2ccccc2[C@@H]2OC(c3ccccc3)=N[C@]2(Cc2ccccc2)C1=O
[35]; Homo sapiens, P493-6, 72 h
  IC50: > 50 µM
[3]; Homo sapiens, P493-6, 72 h
  IC50: > 50 µM

## O=C1N(CCS(=O)(=O)c2ccccc2)Cc2ccccc2[C@@H]2OC(c3ccc(OCCCO)cc3)=N[C@]12Cc1ccccc1 (racemic) [listing 2 of 2 here]
[35]
  IC50: 6.8 to 14.5 µM
Astrocyte
  Activity: Non-Toxic
[3]; Homo sapiens, P493-6, 72 h
  IC50: 50 to 58.1 µM

## O=C1NCc2ccccc2[C@@H]2OC(c3ccccc3)=N[C@]12Cc1ccccc1
[3]; Homo sapiens, P493-6, 72 h
  IC50: > 50 µM

## O=C1N(CCS(=O)(=O)c2ccccc2)Cc2cc(Cl)ccc2[C@@H]2OC(c3ccccc3)=N[C@]12Cc1ccccc1
[35]; Homo sapiens, P493-6, 72 h
  IC50: 25.8 µM
[3]; Homo sapiens, P493-6, 72 h
  IC50: > 50 µM
